Each structure is given as a SMILES string.

Assay [1] concerns the target T1, KIFC1/microtubule (MT) binary complex (Homo sapiens, UniProt Q9BW19).
T1 sequence (Q9BW19 1-673): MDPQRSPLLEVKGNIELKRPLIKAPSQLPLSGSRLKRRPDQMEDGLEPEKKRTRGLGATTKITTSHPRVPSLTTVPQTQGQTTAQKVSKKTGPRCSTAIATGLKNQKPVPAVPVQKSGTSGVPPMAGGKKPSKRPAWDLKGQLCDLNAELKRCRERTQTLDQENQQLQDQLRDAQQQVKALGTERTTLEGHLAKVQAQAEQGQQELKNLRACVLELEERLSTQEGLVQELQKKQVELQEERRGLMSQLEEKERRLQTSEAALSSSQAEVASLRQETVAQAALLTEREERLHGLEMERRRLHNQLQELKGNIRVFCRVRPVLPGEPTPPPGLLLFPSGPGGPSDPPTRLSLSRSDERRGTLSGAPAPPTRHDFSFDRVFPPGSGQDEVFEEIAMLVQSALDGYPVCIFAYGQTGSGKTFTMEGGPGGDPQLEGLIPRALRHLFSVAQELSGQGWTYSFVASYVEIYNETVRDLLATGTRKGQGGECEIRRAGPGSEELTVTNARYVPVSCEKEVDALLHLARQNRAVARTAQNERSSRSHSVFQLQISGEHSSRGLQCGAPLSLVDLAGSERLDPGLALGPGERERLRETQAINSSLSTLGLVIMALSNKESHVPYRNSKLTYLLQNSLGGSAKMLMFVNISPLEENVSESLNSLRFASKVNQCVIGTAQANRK
As to conditions: read-out: Ki (ATP-competitive, MT-noncompetitive inhibition of MT-stimulated KIFC1 enzymatic activity); cited from earlier work.

Assay [2] has as its system BT-549 breast cancer cells. As to conditions: BT-549 cells with amplified centrosomes; cited from earlier work.
Another assay deals with MDA-MB-231 (231) cells. The assay can be described thus: subG1 (hypodiploid) fraction by flow cytometry, 231 cells. The class given is cell-based. On the procedure: (§1) Trypsinized cells were resuspended in PBS at 10^6 cells/ml. Cells were then fixed by addition of ice-cold 70% ethanol. Ethanol-fixed cells were kept overnight at 4° C. before staining. Cells were pelleted and washed twice with PBS. Cell pellets were incubated for an hour at room temperature with mouse anti-MPM-2 antibody (Millipore, Mass., USA), followed by 1 h incubation with Alexa-488 anti-mouse secondary antibody (Life Technologies, NY, USA). Finally cells were washed, pelleted and resuspended in propidium iodide-containing isotonic buffer (0.1 mg/mL) and 0.5% Triton X-100. Cell cycle distribution was determined by flow cytometry using an LSR Fortessa Flow cytometer (BD Biosciences, CA, USA) and analyzed using Flowjo software (Tree Star, OR, USA). […] The duration, highest degree, and rapidity of onset of MA varied between drugs, drug concentrations, and cell lines (FIGS. 2A, 2B). In general, the maximum MA achieved was less pronounced in Nos- and PJ-treated cells (FIGS. 2A, 2B). Drug-induced onset of MA was corroborated by substantial increases in cyclin B1 levels in all cell lines (FIG. 2C). […] Instances where the subG1 fraction was elevated without cleaved caspase-3 may either represent caspase-independent cell death or the presence of hypodiploid cells whose fate is unclear.

A further assay relates to HeLa cells. In words: subG1 (hypodiploid) fraction by flow cytometry, HeLa cells. The class given is cell-based. On the procedure:
as §1
A general note: Flow cytometry measures light scatter and fluorescence of single cells or particles in a stream.

Another assay concerns PC3 cells. The assay can be described thus: subG1 (hypodiploid) fraction by flow cytometry, PC3 cells. It is filed as cell-based. Here is the method:
as §1

The test system of assay [3] is adult human dermal fibroblasts (HDF). In words: subG1 (hypodiploid) fraction by flow cytometry, HDFs. The class given is cell-based.
Assay [4] has as its system mammary fibrocystic (MCF10A) cells. In words: subG1 (hypodiploid) fraction by flow cytometry, MCF10A cells. It is filed as cell-based. As to conditions: for Peak subG1 percent over 48 h: MCF10A.
In another assay the test system is MCF10A cells. In words: Centrosome amplification (CA) by microscopy, MCF10A cells. It is filed as cell-based. As to conditions: interphase and mitotic cells, over 24 h. Here is the method: (§2) Consequently, CA was assessed in cultures treated with different concentrations of declustering drugs for 6, 12, 18, or 24 h and untreated controls via microscopy. Centrosomes were identified by γ-tubulin and centrin-2 colocalization at discrete foci. […] The peak percent CA detected over 24 h is shown in FIG. 6 (only statistically significant (P<0.05) increases over control values are represented in the Figures). Representative confocal micrographs of CA in interphase and mitotic cells, both control and drug treated, are depicted in FIG. 7. No significant correlations between the degree of CA (FIG. 5A) and the expression levels of PLK4, Cyclin E, and Aurora A were found (FIG. 4).
(§3) To determine whether the CA-inducing activity of declustering drugs is restricted to cancer cells, two non-malignant cell lines, mammary fibrocystic (MCF10A) cells and adult human dermal fibroblasts were treated with these drugs. Neither one of RBN, GF or PJ induced CA or cell death (Table 8) in these cell lines. […] In comparison, 10 and 25 μM RBN increased peak CA over controls in interphase cells (p<0.001 and p=0.001, respectively), with the lower concentration dramatically augmenting peak CA to 56% of cells versus 15% for the higher dose (FIG. 9B). Only 10 but not 25 μM RBN increased the extent of CA in mitotic cells, and this upregulation was only slight (10%, p=0.041).

The test system of assay [5] is human dermal fibroblasts (HDFs). The assay can be described thus: Centrosome amplification (CA) by microscopy, HDFs. As to conditions: any concentration or time point assessed. It is filed as cell-based. On the procedure:
as §2, §3

The subject of a further assay is 231 cells. The assay can be described thus: Mitotic arrest (MA) by flow cytometry, 231 cells. It is filed as cell-based. The settings on record: 10 μM. Here is the method:
FIGS. 2A-2C depict mitotic arrest (MA) phenotypes observed upon treatment with putative centrosome declustering drugs. […] Declustering drugs included Nos, BN, RBN, PJ, and GF, all at 10 and 25 μM except GF, which was used at 25 and 50 μM, and cell lines included 231, PC3, and HeLa. […] In general, MA increased from 0 h to a peak near 24 h, followed by a decline in MA that coincided with increases in subG1 fractions. Results are representative of three independent experiments. […] Drugs are ranked in order of increasing peak subG1 from bottom to top along the y axis. […] Increased levels of both cyclins compared with controls (0 h) were detected across cell lines with variable expression patterns depending on the drug and cell line. To evaluate apoptosis, cleaved caspase-3 (C. Caspase-3) was immunoblotted and eventual increases over controls were universally detected, typically by 24 h.
To evaluate the impact of putative declustering drugs on cell cycle progression and hypodiploidy (<2N DNA content, which may indicate apoptotic cells), MDA-MB-231 (231), PC3, and HeLa cells were treated with different concentrations of declustering drugs, stained with propidium iodide, labeled with anti-MPM2 antibody, and then assessed by flow cytometry at multiple time points over 48 h. […]

Take `CCCc1cc(C(=O)N[C@H](Cc2ccc(-c3cccc(OC(F)(F)F)c3)nc2)C(=O)N[C@@H]2CCNC2)sc1C` [AZ82]: the Ki in [1] is 43 nM. Moreover, the centrosome declustering result in assay [2] was “causes centrosome declustering”.
For the compound `COc1ccc2c(c1OC)C(=O)O[C@@H]2[C@H]1c2c(c(Br)c3c(c2OC)OCO3)CCN1C` [BN, 9-bromonoscapine], the “Peak subG1 percent over 48 h” value in the assay with MDA-MB-231 (231) cells (10 μM) is reported as 32.5%; in the assay on MDA-MB-231 (231) cells (25 μM), 65.2%; in the assay with HeLa cells (10 μM) it was 42.0%; with HeLa cells (25 μM), 54.9%; in the assay with PC3 cells (10 μM), 46.0%; in the assay on PC3 cells (25 μM) it was 42.8%. Also, the “Peak subG1 percent over 48 h” value in assay [3] (10 μM) is on record as 16.5%; in assay [3] (25 μM), 20.4%; in assay [4] (10 μM), 3.5%; in assay [4] (25 μM), 3.0%. Moreover, the entries for the “maximum subG1 fraction relative to control” value with MDA-MB-231 (231) cells (25 μM), in the assay with HeLa cells (25 μM) and in the assay on PC3 cells (25 μM) were 9.3 × control, 4.4 × control and 9.2 × control, respectively. The “change of peak subG1 percent compared to controls (in words)” value in [4] (MCF10A cells) is “did not cause a significant increase in peak subG1 percent compared to controls”. The “change of CA over control levels (in words)” value with MCF10A cells is “neither concentrations of Nos or BN significantly increased CA over control levels”. Also, the “change of CA over controls (in words)” value in assay [5] is recorded as “did not significantly increase the extent of CA over controls”. Also, the “mitotic arrest (in words)” value in the assay on 231 cells is recorded as “did not cause any MA”.

The term Ki denotes the equilibrium dissociation constant of an inhibitor or competing ligand from its target.

(Values after patent publication US20150309031A2, “COMPOSITIONS AND METHODS FOR PROGNOSIS AND TREATMENT OF CANCER” (NOVAZOI THERANOSTICS, priority 2013, published 2015).)
